Laboratory results as given in patent US7217411B2, “CeSERT genes, proteins, and modulatory compounds” (Massachusetts Institute of Technology, priority 2000, dated 2007).
“And” between values parts separate entries of the source, which are not always exact repeats. Equal entries are not always repeated.

Key:
[1] = molecular target: T1, MOD-5 CeSERT (Caenorhabditis elegans, UniProt Q963F3); assay: MOD-5-mediated [^3H]serotonin uptake in HEK293 cell lines stably expressing MOD-5; settings: for MOD-5-mediated uptake of radiolabeled neurotransmitter: 50 μM radiolabeled neurotransmitter vs 1 μM [^3H]serotonin; for transport of [^3H]serotonin by MOD-5, % of control: inhibitor 100 μM, [^3H]serotonin 50 nM
T1 sequence (Q963F3 1-671): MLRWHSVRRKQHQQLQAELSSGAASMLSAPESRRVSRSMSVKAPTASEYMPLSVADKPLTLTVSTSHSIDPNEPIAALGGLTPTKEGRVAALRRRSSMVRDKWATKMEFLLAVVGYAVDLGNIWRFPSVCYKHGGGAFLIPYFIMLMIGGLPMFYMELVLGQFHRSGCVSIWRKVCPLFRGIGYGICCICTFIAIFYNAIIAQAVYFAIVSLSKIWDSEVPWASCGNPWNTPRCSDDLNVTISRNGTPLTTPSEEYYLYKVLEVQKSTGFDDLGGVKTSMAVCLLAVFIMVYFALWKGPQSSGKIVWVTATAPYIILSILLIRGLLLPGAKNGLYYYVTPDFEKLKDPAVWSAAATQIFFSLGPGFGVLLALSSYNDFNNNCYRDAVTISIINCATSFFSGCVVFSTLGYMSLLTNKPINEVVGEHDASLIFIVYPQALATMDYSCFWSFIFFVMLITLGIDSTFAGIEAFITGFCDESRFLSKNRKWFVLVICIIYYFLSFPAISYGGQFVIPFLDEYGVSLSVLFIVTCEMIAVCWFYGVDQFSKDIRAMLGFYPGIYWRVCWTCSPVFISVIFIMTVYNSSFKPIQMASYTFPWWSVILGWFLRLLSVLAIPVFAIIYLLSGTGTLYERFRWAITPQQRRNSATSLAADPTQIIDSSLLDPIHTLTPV

[2] = system: other SERTs; settings: read-out: Km range of serotonin transport reported for other SERTs; cited from earlier work
[3] = system: C. elegans NSMs; assay: serotonin uptake in vivo, anti-serotonin staining of NSMs; settings: tph-1, 2 mM 5-HT for 2 hours, no fluoxetine
Procedure: For the anti-serotonin antisera experiments shown in FIG. 1B, mod-5(n823); cat-4 and cat-4; lin-15(n765ts) double mutants were grown at 20° C., and animals of both genotypes were incubated separately on plates containing 2 mM serotonin and bacteria (see Sawin et al. (Neuron 26:619–623, 2000) for details concerning how plates were prepared) for two hours and then incubated on plates with bacteria but without serotonin for 30 min. Controls without exogenous serotonin were similarly treated in parallel. Prior to fixation, mod-5(n823); cat-4 and cat-4; lin-15 double mutants preincubated on serotonin-containing plates were combined, and mod-5(n823); cat-4 and cat-4; lin-15 double mutants preincubated on control plates were combined. Serotonin staining was performed as described by Desai et al. (Nature 336:638–646, 1988) using affinity-purified rabbit polyclonal anti-serotonin antisera. The cat-4; lin-15 mutants were not defective in the uptake of serotonin and served as internal controls for each staining reaction. These animals could be distinguished from the test animals by the Multivulva phenotype caused by lin-15.

[4] = molecular target: T2, dSERT (Drosophila melanogaster, UniProt P51905); settings: inhibitor 200 μM, [^3H]serotonin 100 nM; cited from earlier work
T2 sequence (P51905 1-622): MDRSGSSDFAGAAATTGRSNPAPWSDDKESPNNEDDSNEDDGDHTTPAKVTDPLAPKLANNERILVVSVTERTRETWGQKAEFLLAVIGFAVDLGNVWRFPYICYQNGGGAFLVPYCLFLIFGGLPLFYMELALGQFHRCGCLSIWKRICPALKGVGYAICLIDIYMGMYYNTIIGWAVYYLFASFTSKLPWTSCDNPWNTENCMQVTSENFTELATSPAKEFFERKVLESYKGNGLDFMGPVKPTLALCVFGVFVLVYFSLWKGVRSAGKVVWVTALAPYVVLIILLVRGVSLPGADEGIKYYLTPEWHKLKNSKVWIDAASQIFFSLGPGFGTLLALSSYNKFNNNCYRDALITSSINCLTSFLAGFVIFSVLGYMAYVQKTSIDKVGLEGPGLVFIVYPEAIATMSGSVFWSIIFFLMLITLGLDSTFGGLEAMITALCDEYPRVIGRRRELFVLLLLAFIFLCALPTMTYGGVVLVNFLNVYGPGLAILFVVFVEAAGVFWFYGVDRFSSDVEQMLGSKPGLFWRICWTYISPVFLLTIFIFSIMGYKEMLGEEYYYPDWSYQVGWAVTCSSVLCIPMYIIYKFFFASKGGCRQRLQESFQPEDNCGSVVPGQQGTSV

[5] = system: C. elegans; assay: fluoxetine-induced nose contraction; type: in vivo; settings: 20 minutes
From the text: This conclusion is consistent with the conclusion by Choy and Thomas (1999) that fluoxetine-mediated nose contraction is serotonin-independent, although their hypothesis was based on studies of cat-1(e1111) mutants, which are defective in signaling by several biogenic amines (Duerr et al., J Neurosci 19:72–84, 1999), and cat-4 mutants, which we found to not completely lack serotonin (FIG. 1B).

[6] = system: C. elegans; assay: enhanced slowing response (locomotory rate of food-deprived animals on bacteria); type: in vivo
Procedure: (§1) The plates were allowed to dry at room temperature with their lids removed for more than 2 hours.
For the experiment shown in FIG. 2, well-fed and food-deprived animals were transferred to assay plates with or without a bacterial lawn, and the locomotory rate of each animal was recorded after 5 min; food-deprived animals were transferred to plates without bacteria 30 min prior to the transfer to locomotory assay plates as is also described in Sawin et al. (Neuron 26:619–623, 2000). At least 10 trials were performed for each genotype for each condition. For FIG. 2, each trial involved testing at least five animals for each of the conditions; a given animal was tested in only one condition. p values were calculated by comparing the combined data for the mutants from all of the separate trials under one set of conditions to the combined data for the wild-type animals assayed in parallel under the same conditions. In FIG. 2B the data were obtained from three well-fed animals of each ablation state, seven mock-ablated and food-deprived animals, and 12 NSM-ablated and food-deprived animals. In FIG. 2D, serotonin dose-response curves for wild-type and mod-5 mutant animals were generated from averages of five trials with 20 animals of each genotype at each concentration in which animals were scored for movement after 5 min.
Alternatively, nematodes to be tested in a non-liquid locomotion assay were picked as L4 animals 16–20 hours prior to the assay. Locomotion was assayed by placing the nematode on an assay plate (prepared by spreading a solution of E. coli strain HB101 in NGM agar in 5 cm plates, using a ring with an inner diameter of approximately 1 cm and an outer diameter of approximately 3.5 cm, and allowing the bacteria to grow 13–15 hours at 37 C.), observing each nematode under a dissecting microscope for 20 seconds, and counting the number of dorsal-ventral bends that occurred in the anterior portion of the body during the interval.
To assay locomotion rates in food-deprived animals, 5–15 animals were removed from plates with ample food, washed twice in S-basal buffer, and transferred to 5 cm NGM agar plates without bacteria. Food-deprived animals were incubated on these plates for 30 minutes at room temperature, and then were transferred to assay plates. Locomotion rates were assayed as described above for satiated animals.

[7] = system: C. elegans; assay: egg-laying assay; type: in vivo
Procedure: Egg-laying assays were performed as described in Trent et al. (Genetics 104:619–647, 1983).

[8] = system: C. elegans; settings: in vivo; cited from earlier work
[9] = system: C. elegans; assay: fluoxetine-induced paralysis (liquid locomotion assay); type: in vivo
From the text: (Five trials with 20 animals of each genotype at each concentration and the animals were scored for paralysis after ten minutes.) There was no difference in the time-course of paralysis at any of the concentrations tested. These observations indicate that fluoxetine-induced paralysis in C. elegans is not caused by the lack of serotonin uptake from synapses. Fluoxetine-treated wild-type and mod-5(n3314) mutant animals assumed a rigid body posture. […] Serotonin has been proposed to decrease excitatory input to the locomotory muscles (Nurrish et al., Neuron 24:231–242, 1999).
as §1
Animals to be tested for sensitivity or insensitivity to serotonin in this liquid locomotion assay were picked as L4 animals 16–20 hours prior to assay and the plates were coded so that the experimenter was blind to the genotype of the animals to be scored. On the day of the assay, serotonin (as a creatinine sulphate salt) was dissolved just before use, in M9, at the required concentrations, and 200 μl were aliquoted to the wells of a flat-bottomed 96-well polystyrene plate. […] Fluoxetine-induced paralysis was scored in a similar manner at 10 min.

[10] = molecular target: T1, MOD-5 CeSERT; assay: cell-based
[11] = substrate: NCCc1c[nH]c2ccc(O)cc12; assay: cells, lysate or membranes; settings: other: HEK293 GFPMOD-5 cells, Eadie-Hoftsee transformation; pH 7.4; 37.0 °C

Molecule: NCCCC(=O)O [GABA, gamma-aminobutyric acid]
- MOD-5-mediated uptake of radiolabeled neurotransmitter [1]: inefficient at translocating

Molecule: NCCc1c[nH]c2ccc(O)cc12 [serotonin]
- Km [2]: 0.28 to 0.63 µM
- Vmax of MOD-5-mediated [^3H]serotonin transport ([1]; HEK293 GFPMOD-5 cells): 8.31×10^−9 nmoles per cell per min
- % Serotonin-positive NSMs ([3]; mod-5(n3314)): 0%
- % Serotonin-positive NSMs [3]: 98%

Molecule: NCCc1c[nH]cn1 [histamine]
- MOD-5-mediated uptake of radiolabeled neurotransmitter [1]: inefficient at translocating

Molecule: NCCc1ccc(O)cc1 [tyramine]
- transport of [^3H]serotonin by MOD-5, % of control [1]: 54%±10%
- dSERT-mediated transport of [^3H]serotonin, % of control [4]: 95%±15%

Molecule: N[C@@H](CCC(=O)O)C(=O)O [glutamate]
- MOD-5-mediated uptake of radiolabeled neurotransmitter [1]: inefficient at translocating

Molecule: CNCCC(Oc1ccc(C(F)(F)F)cc1)c1ccccc1 (stereo not drawn) [fluoxetine]
- proportion of animals with contracted noses ([5]; tph-1, 2.9 mM): 100%
- proportion of animals with contracted noses ([5]; wild-type and mod-5(n3314), 1.5 mM): approximately 25%
- proportion of animals with contracted noses ([5]; wild-type and mod-5(n3314), 2.9 mM): 100%
- potentiation of the enhanced slowing response ([6]; bas-1, cat-4 mutants preincubated with 2 mM serotonin): exhibited a potentiated enhanced slowing response
- potentiation of the enhanced slowing response ([6]; mod-1(ok103) mutants): potentiated by fluoxetine
- potentiation of the enhanced slowing response ([6]; mod-5(n3314), mod-1(ok103) double mutants): completely resistant
- potentiation of the enhanced slowing response ([6]; wild-type, food-deprived in 0.22 mM fluoxetine): slow their locomotory rate more
- stimulation of egg-laying ([7]; cat-4 mutants): completely resistant
- stimulation of egg-laying ([7]; egl-1(n1084) mutants (lack HSNs)): no effect on egg-laying
- stimulation of egg-laying ([7]; mod-5(n3314) mutants, 1.5 mM fluoxetine): stimulated to lay eggs to nearly the same extent as was the wild-type
- stimulation of egg-laying ([7]; tph-1 mutants): partially resistant
- concentrations leading to paralysis, contraction of nose muscles, stimulation of egg-laying [8]: 0.25–1 mg/ml and 0.7–2.9 mM
- paralysis induced by fluoxetine treatment ([9]; mod-5(n3314) mutants vs wild-type, scored after ten minutes): retained wild-type sensitivity to fluoxetine
- paralysis induced by fluoxetine treatment ([9]; tph-1 mutants vs wild-type): paralyzed tph-1 mutants to a similar extent as wild-type animals

Molecule: NCCc1ccc(O)c(O)c1 [dopamine]
- MOD-5-mediated uptake of radiolabeled neurotransmitter [1]: inefficient at translocating

Molecule: COC(=O)[C@H]1[C@@H](OC(=O)c2ccccc2)C[C@@H]2CC[C@H]1N2C [cocaine]
- Ki [10]: 4080 ± 349 nM

Molecule: CN(C)CCCN1c2ccccc2CCc2ccccc21 [imipramine]
- Ki [10]: 89 ± 58 nM

Molecule: NCC(O)c1ccc(O)cc1 (stereo not drawn) [octopamine]
- transport of [^3H]serotonin by MOD-5, % of control [1]: 86%±12%
- dSERT-mediated transport of [^3H]serotonin, % of control [4]: 82%±15%

Molecule: NC[C@H](O)c1ccc(O)c(O)c1 [NE, norepinephrine]
- MOD-5-mediated uptake of radiolabeled neurotransmitter [1]: inefficient at translocating

B1: MOD-5 CeSERT (Caenorhabditis elegans) (protein)
chain: T1 sequence (Q963F3 1-671)
- Km [11]: 0.15 ± 0.008 µM
